# Results: ChEMBL document CHEMBL1201862, “PubChem BioAssay data set” (2004)
#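 1) Cells in 96-well plates. 2) Compound, 48 h, 5 concentrations. 3) Linear interpolation between surrounding doses. 4) Unreached endpoint = highest concentration. Here, GI50 denotes the concentration required for 50% inhibition of growth.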 Activity calls are given as the source filed them. No stated cut-off is given here; in the data, active = GI50 up to about 1.1 µM and inactive = higher.
# Key:
# Experiment in all cases: DTP human tumour cell line panel, 48 h
# [1] = system: SN12C
# [2] = system: 786-0
# [3] = system: SR
# [4] = system: UACC-257
# [5] = system: UO-31
# [6] = system: CAKI-1
# [7] = system: OVCAR-5
# [8] = system: SF-295
# [9] = system: NCI-H226
# [10] = system: T47D
# [11] = system: KM12
# [12] = system: OVCAR-8
# [13] = system: SK-MEL-5
# [14] = system: RPMI-8226
# [15] = system: HOP-92
# [16] = system: SF-268
# [17] = system: SNB-19
# [18] = system: OVCAR-4
# [19] = system: SK-OV-3
# [20] = system: SK-MEL-2
# [21] = system: SF-539
# [22] = system: MCF7
# [23] = system: A498
# [24] = system: PC-3
# [25] = system: EKVX
# [26] = system: LOX IMVI
# [27] = system: SW-620
# [28] = system: COLO 205
# [29] = system: NCI/ADR-RES
# [30] = system: M14
# [31] = system: MOLT-4
# [32] = system: A549
# [33] = system: HCT-15
# [34] = system: HOP-62
# [35] = system: RXF 393
# [36] = system: HCC 2998
# [37] = system: K562
# [38] = system: BT-549
# [39] = system: SK-MEL-28
# [40] = system: NCI-H522
# [41] = system: ACHN
# [42] = system: HCT-116
# [43] = system: HT-29
# [44] = system: Hs-578T
# [45] = system: HL-60
# [46] = system: MDA-N
# [47] = system: NCI-H460
# [48] = system: IGROV-1
# [49] = system: MDA-MB-435
# [50] = system: CCRF-CEM
# [51] = system: NCI-H23
# [52] = system: DU-145
# [53] = system: SNB-75
# [54] = system: OVCAR-3
# [55] = system: Malme-3M
# [56] = system: UACC-62
smiles,measurement,setting,value
CCOc1cc(NC(C)=O)ccc1C(=O)NN1C(=O)/C(=C/c2ccco2)N=C1c1ccccc1,GI50,[1],> 100 µM (inactive)
same,GI50,[2],> 100 µM (inactive)
same,GI50,[3],41.5 µM (inactive)
same,GI50,[4],> 100 µM (inactive)
same,GI50,[5],61.7 µM (inactive)
same,GI50,[6],> 100 µM (inactive)
same,GI50,[7],> 100 µM (inactive)
same,GI50,[8],> 100 µM (inactive)
same,GI50,[9],> 100 µM (inactive)
same,GI50,[10],> 100 µM (inactive)
same,GI50,[11],> 100 µM (inactive)
same,GI50,[12],41.2 µM (inactive)
same,GI50,[13],54.6 µM (inactive)
same,GI50,[14],15.1 µM (inactive)
same,GI50,[15],36.2 µM (inactive)
same,GI50,[16],> 100 µM (inactive)
same,GI50,[17],> 100 µM (inactive)
same,GI50,[18],> 100 µM (inactive)
same,GI50,[19],> 100 µM (inactive)
same,GI50,[20],> 100 µM (inactive)
same,GI50,[21],> 100 µM (inactive)
same,GI50,[22],> 100 µM (inactive)
same,GI50,[23],> 100 µM (inactive)
same,GI50,[24],> 100 µM (inactive)
same,GI50,[25],74.3 µM (inactive)
same,GI50,[26],> 100 µM (inactive)
same,GI50,[27],> 100 µM (inactive)
same,GI50,[28],> 100 µM (inactive)
same,GI50,[29],> 100 µM (inactive)
same,GI50,[30],> 100 µM (inactive)
same,GI50,[31],22.3 µM (inactive)
same,GI50,[32],> 100 µM (inactive)
same,GI50,[33],> 100 µM
same,GI50,[34],> 100 µM (inactive)
same,GI50,[35],> 100 µM (inactive)
same,GI50,[36],> 100 µM (inactive)
same,GI50,[37],26.8 µM (inactive)
same,GI50,[38],> 100 µM (inactive)
same,GI50,[39],> 100 µM (inactive)
same,GI50,[40],24.9 µM (inactive)
same,GI50,[41],> 100 µM (inactive)
same,GI50,[42],> 100 µM (inactive)
same,GI50,[43],> 100 µM (inactive)
same,GI50,[44],42.8 µM (inactive)
same,GI50,[45],> 100 µM (inactive)
same,GI50,[46],> 100 µM (inactive)
same,GI50,[47],> 100 µM (inactive)
same,GI50,[48],> 100 µM (inactive)
same,GI50,[49],> 100 µM (inactive)
same,GI50,[50],> 100 µM (inactive)
same,GI50,[51],> 100 µM (inactive)
same,GI50,[52],> 100 µM (inactive)
same,GI50,[53],> 100 µM (inactive)
same,GI50,[54],> 100 µM (inactive)
same,GI50,[55],> 100 µM (inactive)
same,GI50,[56],> 100 µM (inactive)
